Earlier results on one compound are cited in patent US8648203B2 (priority 2005, dated 2014).

Series [1] deals with potato Phycophthora infestans. Conditions: field tests.
The subject of series [2] is mites. Conditions: repeated treatments in the field.

On to `O=[N+]([O-])c1cc(C(F)(F)F)c(Cl)c([N+](=O)[O-])c1Nc1ncc(C(F)(F)F)cc1Cl` [fluazinam, 3-chloro-N-(3-chloro-5-trifluoromethyl-2-pyridyl)-α,α,α-trifluoro-2,6-dinitro-p-toluidine], for which the “activity against potato Phycophthora infestans” value in series [1] is “excellent activity”. Further, the population of mites entry in series [2] is reported as “significantly reduce the population of mites”.
